According to US9302993B2, “8-hydroxy quinoline derivatives” (PRANA BIOTECHNOLOGY LIMITED, priority 2002, dated 2016):

What was measured:
APP2576 transgenic mouse = details: previous studies on transgenic mice, 20-30 mg/kg orally daily five days per week, 2-3 months; cited from earlier work
[1] = tested on: moderately severe AD patients; experiment: Phase II clinical trial of PBT-1 in Alzheimer's disease (Example 21); type: in vivo, human; details: for Steady state pre-dose levels of PBT-1: blood; for difference in mean change from baseline ADAS-cog score of PBT-1 over placebo: more-severely affected groups
Description: The performance of the less-severely affected group (ADAS-cog<25) deteriorated negligibly over this interval, so cognitive changes could not be discriminated in this stratum.
The study took place at the AD clinical trials unit, Mental Health Research Institute of Victoria and at the Royal Melbourne Hospital. Criteria for inclusion in the study were: informed consent; a diagnosis of probable AD by NINCDS-ADRDA criteria (McKhann et al., 1984); AD Assessment Scale-cognitive (ADAS-cog) (Rosen et al., 1984) score of 18-45; Mini Mental State Examination (MMSE) (Folstein et al., 1975) score of 10-24; on donepezil 5 mg or 10 mg for at least 6 months; relative or carrier willing and able to support the trial; able to complete trial examinations; primary sensorial functions intact.
The study was a double blind, placebo-controlled, parallel group randomized design. […] The duration of the study was 36 weeks.
Screening procedures consisted of a complete medical history, physical, neurological and ophthalmic examination, blood and urine tests and psychometric tests (ADAS-cog, MMSE). Nerve conduction tests and visual evoked responses were conducted between the screening and baseline visits to provide a baseline measurement. Blood was collected for ApoE allotyping, baseline plasma levels of metals and Aβ prior to randomization. All patients continued their study entry dose of donepezil and all patients received 100 mg vitamin B12 intramuscularly every four weeks.
Blood samples were collected by antecubital venepuncture except on weeks 12, 24 and 36 when they were collected by an indwelling catheter. […] Zn data from these intervals were therefore omitted from analysis.
The primary clinical efficacy variable was a change from baseline score on the ADAS-cog conducted at baseline and at weeks 4, 12, 24 and 36. This measure was chosen to allow comparability of treatment effects with current therapeutics such as donepezil, where efficacy trials also used ADAS-cog as their primary outcome measure (Rogers et al., 1998). Although numerous neuropsychological tests could be considered as secondary measures, it was necessary to avoid fatiguing the subjects at review. Therefore the only other cognitive test was the Mini-Mental State Exam (MMSE). The CIBIC+ (clinician interview based impression of change incorporating caregiver information), a subjective observational index was also conducted. Plasma Aβ, and plasma zinc and copper were all taken every four weeks.
Polystyrene plates were coated with mAb G210 (for Aβ40) or mAb G211 (for Aβ42). Plates were washed and biotinylated mAb WO2 was added. Bound antibody was detected with streptavidin-labelled Europium (Perkin Elmer, Vic Australia). The values obtained from triplicated wells were calculated based on standard curves generated on each plate. Plasma samples supplemented with synthetic Aβ1-40 and Aβ1-42 were also assayed to confirm measurement reliability across the concentration range of interest.
Metals were measured by inductively coupled plasma mass spectrometry as previously described (Cherny et al., 2001).
Standard adverse event reporting was conducted and biochemical tests, renal and liver function, complete blood examination, serum vitamin B12 and folate levels were documented at each visit. To assess for peripheral and optic neuropathy a neurological examination was conducted at each visit, and visual evoked responses, nerve conduction studies and ophthalmic examination were conducted at screening, week 16 and prior to the final trial visit. An ECG was done at screening and weeks 12, 24 and 36.
Data monitoring and management were undertaken by independent contractors (Kendle International and Health Research Solutions, Melbourne). Evidence for efficacy was indicated by a significant difference in change from baseline between treatment arms. […]

Oc1c(I)cc(Cl)c2cccnc12 [PBT-1]
inhibiting Aβ accumulation (APP2576 transgenic mouse): markedly effective
effect on plasma Cu ([1]; AD patients): no effect
elevation of total plasma Zn ([1]; AD patients): ≈ 30%
Steady state pre-dose levels of PBT-1 ([1]; total daily dosage 250 mg): 4.03 ± 2.10 µg/mL
Steady state pre-dose levels of PBT-1 ([1]; total daily dosage 500 mg): 6.74 ± 3.70 µg/mL
Steady state pre-dose levels of PBT-1 ([1]; total daily dosage 750 mg): 7.60 ± 2.15 µg/mL
Plasma Aβ42 change from baseline ([1]; from week 20 onwards): significant decline from baseline
difference in mean change from baseline ADAS-cog score of PBT-1 over placebo ([1]; week 24): 7.37
difference in mean change from baseline ADAS-cog score of PBT-1 over placebo ([1]; week 36): 6.36
effect of treatment in preventing cognitive deterioration ([1]; over 36 weeks, more-severely affected patients (baseline ADAS-cog≧25)): statistically significant
